Experimental data as given in patent US20120052130A1, “GPR 119 MODULATORS” (Pfizer Inc., priority 2009, published 2012).

Molecular target: T1, human GPR119 (Homo sapiens, UniProt Q8TDV5)
T1 sequence (Q8TDV5 1-335): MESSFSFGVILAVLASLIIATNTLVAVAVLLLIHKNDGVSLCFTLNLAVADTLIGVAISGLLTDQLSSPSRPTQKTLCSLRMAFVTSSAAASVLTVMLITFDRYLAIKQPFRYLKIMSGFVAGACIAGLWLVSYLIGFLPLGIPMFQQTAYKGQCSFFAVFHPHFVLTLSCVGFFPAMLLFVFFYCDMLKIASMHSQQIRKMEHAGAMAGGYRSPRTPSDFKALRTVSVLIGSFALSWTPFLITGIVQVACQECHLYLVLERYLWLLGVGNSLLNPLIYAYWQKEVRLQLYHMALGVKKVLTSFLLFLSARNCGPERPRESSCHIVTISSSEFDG
Assay: GPR 119 radioligand binding assay ([3H]-Compound A or [3H]-Compound B, membranes of HEK 293FT cells over-expressing hGPR119)
Settings: calculated from IC50 by Cheng-Prusoff; each line is a separate determination
Protocol: HEK 293FT cells (Invitrogen, Carlsbad, Calif.) were grown in a shake flask in 293Freestyle medium (Invitrogen) supplemented with 50 microg/mL neomycin and 10 mM HEPES (37 C, 8% carbon dioxide, shaking). The cells were centrifuged gently (approximately 500×g, 10 minutes) and the pellet resuspended in a mixture of Dulbecco's PBS(minus Mg++/−Ca++) supplemented with 18% fetal bovine serum (Sigma Aldrich) and P1 virus such that the multiplicity of infection (MOI) was 10 and the final cell density was 1.3×10^6/mL (total volume 2.5 liters). The cells were transferred to a 5 liter Wave Bioreactor Wavebag (Wave Technologies, MA) and incubated for 4 hours at 27 degrees Celsius (17 rocks/min, 7 degrees platform angle); at the end of the incubation period, an equal volume(2.5 liters) of 293Freestyle medium supplemented with 30 mM sodium butyrate (Sigma Aldrich) was added (final concentration=15 mM), and the cells were grown for 20 hours (37 degrees Celsius, 8% CO2 [0.2 liters/min}, 25 rocks/minute, 7 degrees platform angle). […]
The frozen cells were thawed on ice and centrifuged at 700×g (1400 rpm) for 10 minutes at 4 degrees Celsius. […] The protein concentration was determined using the Pierce BCA protein assay kit (Pierce reagents A #23223 and B #23224). […]

| Ki [nM] | Structure (SMILES) |
| --- | --- |
| 45.8 | Cc1c(O[C@@H]2[C@@H]3COC[C@H]2CN(C(=O)OC2(C)CC2)C3)ncnc1N1CCc2ncccc21 [Example 28, 1-Methylcyclopropyl (9-syn)-9-{[6-(2,3-dihydro-1H-pyrrolo[3,2-b]pyridin-1-yl)-5-methylpyrimidin-4-yl]oxy}-3-oxa-7-azabicyclo[3.3.1]nonane-7-carboxylate] |
| 130 | Cc1c(O[C@@H]2[C@@H]3COC[C@H]2CN(C(=O)OC(C)C)C3)ncnc1N1CCc2cc(S(C)(=O)=O)ccc21 [Example 23, Isopropyl (9-syn)-9-({5-methyl-6-[5-(methylsulfonyl)-2,3-dihydro-1H-indol-1-yl]pyrimidin-4-yl}oxy)-3-oxa-7-azabicyclo[3.3.1]nonane-7-carboxylate] |
